The text below walks through data of patent US9126945B2, “N-(3-carbamoylphenly)-1H-pyrazole-5-carboxamide derivatives and the use thereof for controlling animal pests” (BAYER INTELLECTUAL PROPERTY GMBH, priority 2011, dated 2015).

The first series is described as follows: log P by HPLC, EEC Directive 79/831 Annex V.A8, method a). The format is physicochemical. The conditions noted are these: cell prints no method mark; Ex. 40 value equals the log P given under method a). The method, then: (§1) ^a) Note regarding the determination of the log P values and mass detection The determination of the given log P values was carried out in accordance with EEC Directive 79/831 Annex V.A8 by HPLC (High Performance Liquid Chromatography) on a reversed-phase column (C18). Agilent 1100 LC system; 50*4.6 Zorbax Eclipse Plus C18 1.8 micron; mobile phase A: acetonitrile (0.1% formic acid); mobile phase B: water (0.09% formic acid); linear gradient from 10% acetonitrile to 95% acetonitrile in 4.25 min, then 95% acetonitrile for a further 1.25 min; oven temperature 55° C.; flow rate: 2.0 ml/min Mass detection is via an Agilend MSD system.
as §1, with “mass detection:” for “mass detection”, “2.0 ml/min.” for “2.0 ml/min”
On to `CCn1nc(C(F)(F)C(F)(F)F)c(C(F)(F)F)c1C(=O)N(C)c1ccc(Cl)c(C(=O)NC2(C#N)CC2)c1` [Example 38], for which the logP was 3.57.
As to `CC(=O)N(C(=O)c1c(C(F)(F)F)c(C(F)(F)C(F)(F)F)nn1C)c1ccc(Cl)c(C(=O)NC2(C#N)CC2)c1` [Example 53], the logP is 3.63.
Consider `COC(=O)N(C(=O)c1c(C(F)(F)F)c(C(F)(F)C(F)(F)F)nn1C)c1ccc(Cl)c(C(=O)NC2(C#N)CC2)c1` [Example 19], for which the logP was 3.69.
The same measure, in the same setting: in the case of `CCN(C(=O)c1c(C(F)(F)F)c(C(F)(F)C(F)(F)F)nn1CC)c1ccc(Cl)c(C(=O)N(CC)C2(C#N)CC2)c1` [Example 52] it was 4.26; in that of `C=C(C)CN(C(=O)c1c(C(F)(F)F)c(C(F)(F)C(F)(F)F)nn1C)c1ccc(Cl)c(C(=O)NC2(C#N)CC2)c1` [Example 55], 3.78.
For the molecule `Cn1nc(C(F)(F)C(F)(F)F)c(S(C)(=O)=O)c1C(=O)Nc1ccc(Cl)c(C(=O)NC2(C#N)CC2)c1` [Example 49], the logP amounted to 2.47.
Same read-out and setting: the same measure for `C=CCn1nc(C(F)(F)C(F)(F)F)c(C(F)(F)F)c1C(=O)Nc1ccc(Cl)c(C(=O)NC2(C#N)CC2)c1` [Example 58]: 3.65; for `CCOC(=O)N(C(=O)c1c(C(F)(F)F)c(C(F)(F)C(F)(F)F)nn1C)c1ccc(Cl)c(C(=O)N(C(=O)OCC)C2(C#N)CC2)c1` [Example 22]: 4.80.
Consider `Cn1nc(C(F)(F)C(F)(F)F)c(C(F)(F)F)c1C(=O)N(Cc1ccc(Cl)cc1)c1ccc(Cl)c(C(=O)NC2(C#N)CC2)c1` [Example 28], for which the logP came to 4.30.
`Cc1cc(NC(=O)c2c(C(F)(F)F)c(C(F)(F)C(F)(F)F)nn2C)cc(C(=O)NC2(C#N)CC2)c1Cl` [Example 24] yielded a logP of 3.51.
For `C#CCN(C(=O)c1c(C(F)(F)F)c(C(F)(F)C(F)(F)F)nn1C)c1ccc(Cl)c(C(=O)NC2(C#N)CC2)c1` [Example 26], the logP was 3.41.
Take `Cn1nc(C(F)(F)F)c(C(F)(F)F)c1C(=O)Nc1cc(Br)c(Br)c(C(=O)NC2(C#N)CC2)c1` [Example 11]: the logP came out at 3.30.
The same measure, in the same setting: in the case of `CCCn1nc(C(F)(F)C(F)(F)F)c(C(F)(F)F)c1C(=O)N(CC)c1ccc(Cl)c(C(=O)N(CC)C2(C#N)CC2)c1` [Example 51] it was 4.68; in that of `CCn1nc(C(F)(F)C(F)(F)F)c(C(F)(F)F)c1C(=O)Nc1ccc(Cl)c(C(=O)NC2(C#N)CC2)c1` [Example 34], 3.53; in that of `Cn1nc(C(F)(F)C(F)(F)F)c(C(F)(F)F)c1C(=O)N(Cc1ccncc1)c1ccc(Cl)c(C(=O)NC2(C#N)CC2)c1` [Example 56], 2.52.
`CCn1nc(C(F)(F)C(F)(F)F)c(C(F)(F)F)c1C(=O)N(C)c1ccc(Cl)c(C(=O)N(C)C2(C#N)CC2)c1` [Example 41] showed a logP of 3.85.
Still for that read-out and setting: in the case of `CCC(=O)N(C(=O)c1cc(NC(=O)c2c(C(F)(F)F)c(C(F)(F)C(F)(F)F)nn2C)ccc1Cl)C1(C#N)CC1` [Example 15] it was 4.17; in that of `CCN(C(=O)c1cc(NC(=O)c2c(C(F)(F)F)c(C(F)(F)C(F)(F)F)nn2C)ccc1Cl)C1(C#N)CC1` [Example 61], 3.86.
For the molecule `CC#CCN(C(=O)c1c(C(F)(F)F)c(C(F)(F)C(F)(F)F)nn1C)c1ccc(Cl)c(C(=O)NC2(C#N)CC2)c1` [Example 30], the logP amounted to 3.60.
Consider `CC(C)C(=O)N(C(=O)c1c(C(F)(F)F)c(C(F)(F)C(F)(F)F)nn1C)c1ccc(Cl)c(C(=O)NC2(C#N)CC2)c1` [Example 29], for which the logP is recorded as 4.38.
`CCN(C(=O)c1c(C(F)(F)F)c(C(F)(F)C(F)(F)F)nn1CC)c1ccc(Cl)c(C(=O)NC2(C#N)CC2)c1` [Example 43]: the logP is 3.68.
For `CC(=O)N(C(=O)c1c(C(F)(F)F)c(C(F)(F)C(F)(F)F)nn1C)c1ccc(Cl)c(C(=O)N(C(C)=O)C2(C#N)CC2)c1` [Example 18], the logP is 4.04.
`C#CCn1nc(C(F)(F)C(F)(F)F)c(C(F)(F)F)c1C(=O)Nc1ccc(Cl)c(C(=O)NC2(C#N)CC2)c1` [Example 57] came in with a logP of 3.58.
The same measure, in the same setting: the same measure for `Cn1nc(C(F)(F)C(F)(F)F)c(C(F)(F)F)c1C(=O)Nc1cc(F)c(Br)c(C(=O)NC2(C#N)CC2)c1` [Example 59]: 3.58; for `CC(C)OC(=O)N(C(=O)c1c(C(F)(F)F)c(C(F)(F)C(F)(F)F)nn1C)c1ccc(Cl)c(C(=O)NC2(C#N)CC2)c1` [Example 63]: 4.19.
On the same count and under the same terms, the same measure for `CCCn1nc(C(F)(F)C(F)(F)F)c(C(F)(F)F)c1C(=O)Nc1ccc(F)c(C(=O)NC2(C#N)CC2)c1` [Example 36]: 3.74; for `CCCn1nc(C(F)(F)C(F)(F)F)c(C(F)(F)F)c1C(=O)N(C)c1ccc(F)c(C(=O)N(C)C2(C#N)CC2)c1` [Example 47]: 4.05.
The molecule `Cn1nc(C(F)(F)F)c(C(F)(F)F)c1C(=O)Nc1cc(Cl)c(Br)c(C(=O)NC2(C#N)CC2)c1` [Example 12] displayed a logP of 3.27.
In turn, `CCOC(=O)N(C(=O)c1c(C(F)(F)F)c(C(F)(F)C(F)(F)F)nn1C)c1ccc(Cl)c(C(=O)NC2(C#N)CC2)c1` [Example 20] yielded a logP of 3.95.
Still for that read-out and setting: the same measure for `Cn1nc(C(F)(F)C(F)(F)F)c(C(F)(F)F)c1C(=O)N(Cc1ccccc1)c1ccc(Cl)c(C(=O)NC2(C#N)CC2)c1` [Example 31]: 3.97; for `CCn1nc(C(F)(F)C(F)(F)F)c(C(F)(F)F)c1C(=O)N(C)c1ccc(F)c(C(=O)N(C)C2(C#N)CC2)c1` [Example 48]: 3.76.
With `COC(=O)N(C(=O)c1c(C(F)(F)F)c(C(F)(F)C(F)(F)F)nn1C)c1ccc(Cl)c(C(=O)N(C(=O)OC)C2(C#N)CC2)c1` [Example 21], the logP amounted to 4.32.
As for `Cn1nc(C(F)(F)C(F)(F)F)c([S+](C)[O-])c1C(=O)Nc1ccc(Cl)c(C(=O)NC2(C#N)CC2)c1` (stereo not shown) [Example 45], the logP stood at 2.91.
Regarding `Cn1nc(C(F)(F)C(F)(F)F)c(C(F)(F)F)c1C(=O)N(C(=O)C(C)(C)C)c1ccc(Cl)c(C(=O)NC2(C#N)CC2)c1` [Example 23], the logP was determined as 4.40.
`Cn1nc(C(F)(F)C(F)(F)F)c(C(F)(F)F)c1C(=O)Nc1ccc(F)c(C(=O)NC2(C#N)CC2)c1` [Example 27] displayed a logP of 3.21.
Same read-out and setting: the same measure for `Cn1nc(C2(F)CC2)c(Cl)c1C(=O)Nc1ccc(Cl)c(C(=O)NC2(C#N)CC2)c1` [Example 17]: 2.50; for `CCCn1nc(C(F)(F)C(F)(F)F)c(C(F)(F)F)c1C(=O)N(C)c1ccc(Cl)c(C(=O)N(C)C2(C#N)CC2)c1` [Example 46]: 4.26.

The same series, now with this note: reversed-phase C18 HPLC column; HPLC-MS method a), reversed-phase C18, acetonitrile/water with formic acid.
Turning to `N#CC1(NC(=O)c2cc(N)ccc2Cl)CC1` [5-Amino-2-chloro-N-(1-cyanocyclopropyl)benzamide], the chromatographic logP is 0.82.
Consider `CCCn1nc(C(F)(F)C(F)(F)F)c(C(F)(F)F)c1C(=O)N(CC)c1ccc(Cl)c(C(=O)NC2(C#N)CC2)c1` [Example 50, N-{4-Chloro-3-[(1-cyanocyclopropyl)carbamoyl]phenyl}-N-ethyl-3-(pentafluoroethyl)-1-propyl-4-(trifluoromethyl)-1H-pyrazole-5-carboxamide], for which the chromatographic logP was found to be 4.06.
With `Cn1nc(C(F)(F)C(F)(F)F)c(C(F)(F)F)c1C(=O)Nc1ccc(Cl)c(C(=O)O)c1` [2-Chloro-5-({[1-methyl-3-(pentafluoroethyl)-4-(trifluoromethyl)-1H-pyrazol-5-yl]carbonyl}amino)benzenecarboxylic acid], the chromatographic logP worked out at 3.18.
With `COC(=O)c1c(SC)c(C(F)(F)C(F)(F)F)nn1C` [methyl 1-methyl-4-(methylsulphanyl)-3-(pentafluoroethyl)-1H-pyrazole-5-carboxylate], the chromatographic logP was found to be 3.51.
`COC(=O)c1c(N)c(C(F)(F)C(F)(F)F)nn1C` [methyl 4-amino-1-methyl-3-(pentafluoroethyl)-1H-pyrazole-5-carboxylate] showed a chromatographic logP of 2.52.
As for `Cn1nc(C2(F)CC2)c(Cl)c1C(=O)O` [4-Chloro-3-(1-fluorocyclopropyl)-1-methyl-1H-pyrazole-5-carboxylic acid], the chromatographic logP is 3.07.
`Cn1nc(C2(Cl)CC2)c(Cl)c1C(=O)O` [4-Chloro-3-(1-chlorocyclopropyl)-1-methyl-1H-pyrazole-5-carboxylic acid] showed a chromatographic logP of 1.9.
The same measure, in the same setting: in the case of `N#CC1(NC(=O)c2cc([N+](=O)[O-])ccc2Cl)CC1` [2-chloro-N-(1-cyanocyclopropyl)-5-nitrobenzamide] it was 1.52.
In the case of `CCOC(=O)c1c(Cl)c(C2(F)CC2)nn1C` [Ethyl 4-chloro-3-(1-fluorocyclopropyl)-1-methyl-1H-pyrazole-5-carboxylate], the chromatographic logP amounted to 3.07.
As for `COC(=O)c1c([N+](=O)[O-])c(C(F)(F)C(F)(F)F)nn1C` [methyl 1-methyl-4-nitro-3-(pentafluoroethyl)-1H-pyrazole-5-carboxylate], the chromatographic logP worked out at 3.18.

Still in this series, the particulars now being: reversed-phase HPLC column (C18); HPLC-MS, method note not marked.
`CSc1c(C(F)(F)C(F)(F)F)nn(C)c1C(=O)O` [1-Methyl-4-(methylsulphanyl)-3-(pentafluoroethyl)-1H-pyrazole-5-carboxylic acid]: the chromatographic logP was found to be 3.51.

Staying with this series, now noted: reversed-phase HPLC column (C18); cell prints no method mark; Ex. 40 value equals the log P given under method a).
With `CCCn1nc(C(F)(F)C(F)(F)F)c(C(F)(F)F)c1C(=O)N(CC)c1ccc(Cl)c(C(=O)NC2(C#N)CC2)c1` [Example 50, N-{4-Chloro-3-[(1-cyanocyclopropyl)carbamoyl]phenyl}-N-ethyl-3-(pentafluoroethyl)-1-propyl-4-(trifluoromethyl)-1H-pyrazole-5-carboxamide], the chromatographic logP was 4.06.

As usually defined, the logP is the decadic logarithm of the partition coefficient of the neutral form, usually between octanol and water. One may read the chromatographic logP as lipophilicity estimated from chromatographic retention. A higher chromatographic logP goes with a more lipophilic compound.
